Results from patent publication US7902248B2, “Oxime glucokinase activators” (Hoffmann-La Roche Inc., priority 2006, dated 2011).

Molecular target: T1, Recombinant human liver GK (GST-GK) (Homo sapiens, UniProt P35557)
T1 construct: made in house; host or cells: E. coli
T1 sequence (P35557 1-466 isoform P35557-2): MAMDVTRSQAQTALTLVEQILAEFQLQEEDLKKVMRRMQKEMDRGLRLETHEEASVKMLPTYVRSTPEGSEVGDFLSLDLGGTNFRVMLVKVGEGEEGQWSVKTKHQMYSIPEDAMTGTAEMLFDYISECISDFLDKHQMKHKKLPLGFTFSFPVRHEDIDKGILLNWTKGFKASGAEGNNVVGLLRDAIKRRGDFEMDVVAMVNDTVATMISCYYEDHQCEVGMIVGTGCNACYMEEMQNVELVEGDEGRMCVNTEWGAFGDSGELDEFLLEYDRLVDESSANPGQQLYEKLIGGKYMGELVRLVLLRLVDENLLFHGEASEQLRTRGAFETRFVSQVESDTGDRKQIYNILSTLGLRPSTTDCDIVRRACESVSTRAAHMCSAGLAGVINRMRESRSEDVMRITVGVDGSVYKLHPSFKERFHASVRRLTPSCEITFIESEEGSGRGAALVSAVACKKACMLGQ
Assay: In vitro glucokinase activity assay (G6PDH-coupled NADH generation, OD 340 nm)
Type: biochemical
Settings: concentration of activator that produced a 50% increase in the activity of GK; 5 mM D-glucose, 25° C.-30° C., pH 7.1
Procedure: Glucokinase In Vitro Assay Protocol. Glucokinase (GK) was assayed by coupling the production of glucose-6-phosphate to the generation of NADH with glucose-6-phosphate dehydrogenase (G6PDH, Roche) from Leuconostoc mesenteroides as the coupling enzyme (Scheme 2).
Recombinant human liver GK was expressed in E. coli as a glutathione S-transferase fusion protein (GST-GK) [Liang et al, 1995] and was purified by chromatography over a glutathione-Sepharose 4B affinity column using the procedure provided by the manufacturer (Amersham Pharmacia Biotech, Piscataway, N.J.).
The assay was conducted at 25° C.-30° C. in a flat bottom 96-well tissue culture plate from Costar (Cambridge, Mass.) with a final incubation volume of 120 μL. The incubation reaction contained the following: 25 mM Hepes buffer (pH 7.1), 25 mM KCl, 5 mM D-glucose, 1 mM ATP, 1.8 mM NAD, 2 mM MgCl2, 1 μM sorbitol-6-phosphate, 1 mM dithiothreitol, test drug or 10% DMSO, 1.8 unit/ml G6PDH, and GK (see below). All organic reagents were >98% pure and were from Roche with the exceptions of D-glucose and Hepes which were from Sigma Chemical Co, St Louis, Mo. Test compounds were dissolved in DMSO and were added to the incubation reaction minus GST-GK in a volume of 12 μL to yield a final DMSO concentration of 10%. This mix was pre-incubated in the temperature controlled chamber of a SPECTRAmax 250 microplate spectrophotometer (Molecular Devices Corporation, Sunnyvale, Calif.) for 10 minutes to allow temperature equilibrium and then the reaction was started by the addition of 20 μL GST-GK.
After addition of enzyme, the increase in optical density (OD) at 340 nm was monitored over a 15 minute incubation period as a measure of GK activity. The GK activity in control wells (mOD/min) was compared with the activity in wells containing test GK activators (mOD/min), and the concentration of activator that produced a 50% increase in the activity of GK, i.e., the SC1.5, was calculated.

SMILES	SC1.5
Cn1ccc(NC(=O)/C(=N/OC2CCCCC2)c2ccc(S(C)(=O)=O)c(Cl)c2)n1 [Example 9, (E)-2-(3-Chloro-4-methanesulfonyl-phenyl)-2-cyclohexyloxyimino-N-(1-methyl-1H-pyrazol-3-yl)-acetamide]	12 µM
CS(=O)(=O)c1ccc(/C(=N\OC2CCCCC2)C(=O)Nc2ncc(C(N)=O)s2)cc1Cl [Example 12, (E)-2-[2-(3-Chloro-4-methanesulfonyl-phenyl)-2-cyclohexyloxyimino-acetylamino]-thiazole-5-carboxylic acid amide]	1.1 µM
CC(C)CO/N=C(/C(=O)Nc1ccn(C)n1)c1ccc(S(C)(=O)=O)c(Cl)c1 [Example 24, (E)-2-(3-Chloro-4-methanesulfonyl-phenyl)-2-isobutoxyimino-N-(1-methyl-1H-pyrazol-3-yl)-acetamide]	5.3 µM
CC(C)CO/N=C(/C(=O)Nc1nc2ccccc2s1)c1ccc(S(C)(=O)=O)c(Cl)c1 [Example 25, (E)-N-Benzothiazol-2-yl-2-(3-chloro-4-methanesulfonyl-phenyl)-2-isobutoxyimino-acetamide]	1.6 µM
CS(=O)(=O)c1ccc(/C(=N\OC2CCCC2)C(=O)Nc2ccn(Cc3cccnc3)n2)cc1Cl [Example 31, (E)-2-(3-Chloro-4-methanesulfonyl-phenyl)-2-cyclopentyloxyimino-N-(1-pyridin-3-ylmethyl-1H-pyrazol-3-yl)-acetamide]	0.35 µM

The next lines start with the values.

SC1.5	SMILES
0.79 µM	CC(C)O/N=C(/C(=O)Nc1nc2ccccc2s1)c1ccc(S(C)(=O)=O)c(Cl)c1 [Example 7, (E)-N-Benzothiazol-2-yl-2-(3-chloro-4-methanesulfonyl-phenyl)-2-isopropoxyimino-acetamide]
8.4 µM	Cc1nsc(NC(=O)/C(=N/OC2CCCCC2)c2ccc(S(C)(=O)=O)c(Cl)c2)n1 [Example 10, (E)-2-(3-Chloro-4-methanesulfonyl-phenyl)-2-cyclohexyloxyimino-N-(3-methyl-[1,2,4]thiadiazol-5-yl)-acetamide]
0.26 µM	CS(=O)(=O)c1ccc(/C(=N\OC2CCCC2)C(=O)Nc2nc3ccccc3s2)cc1Cl [Example 14, (E)-N-Benzothiazol-2-yl-2-(3-chloro-4-methanesulfonyl-phenyl)-2-cyclopentyloxyimino-acetamide]
29 µM	O=C(Nc1nc2ccccc2s1)/C(=N/OC1CCCC1)c1ccc(Cl)c(Cl)c1 [Example 19, (E)-N-Benzothiazol-2-yl-2-cyclopentyloxyimino-2-(3,4-dichloro-phenyl)-acetamide]
2.8 µM	CS(=O)(=O)c1ccc(/C(=N\OC2CCCC2)C(=O)Nc2nc3ccc(Cl)cc3s2)cc1Cl [Example 23, (E)-N-(6-Chloro-benzothiazol-2-yl)-2-(3-chloro-4-methanesulfonyl-phenyl)-2-cyclopentyloxyimino-acetamide]
